# Target: human mGlu4 (Homo sapiens (Human), UniProt Q14833)
# Assay: mGlu4 PAM assay in human mGlu4/Gqi5 cells with ~EC20 glutamate (Hamamatsu FDSS)
# Type: cell-based
# Conditions: ~EC20 concentration of glutamate, read-out: mGlu4 PAM EC50
# Procedure: The disclosed compounds and compositions can be evaluated for their ability to act as a potentiatior of metabotropic glutamate receptor activity, in particular mGluR4 activity, by any suitable known methodology known in the art. For example, Chinese Hamster Ovary (CHO) cells transfected with human mGluR4 or HEK cells co-transfected with rat mGluR4 and the G-protein regulated Inwardly Rectifying Potassium channel (GIRK) were plated in clear bottom assay plates for assay in a Hamamatsu FDSS Fluorometric Plate Reader. The cells were loaded with either a Ca2+-sensitive fluorescent dye or the thallium responsive dye and the plates were washed and placed into a suitable kinetic plate reader. For human mGluR4 assays, a fluorescence baseline was established for 3-5 seconds, the disclosed compounds were then added to the cells, and the response in cells was measured. Approximately two and a half minutes later, a concentration of mGluR4 orthosteric agonist (e.g. glutamate, L-AP4, or L-SOP) eliciting approximately 20% (EC20) of the maximal agonist response was added to the cells, and the response was measured. Two minutes later, a concentration of mGluR4 agonist (e.g. glutamate, L-AP4, or L-SOP) eliciting 80% (EC80) of the maximal agonist response was added to the cells, and the response was measured. For rat mGluR4/GIRK experiments, a baseline was established for approximately five seconds, disclosed compounds were added, and either an EC20 or EC80 concentration of agonist was added approximately two and one half minutes later.
# The above described assay operated in two modes. In the first mode, a range of concentrations of the disclosed compounds are added to cells, followed by a single fixed concentration of agonist. If the compound acts as a potentiatior, an EC50 value for potentiation and a maximum extent of potentiation by the compound at this concentration of agonist is determined by non-linear curve fitting. If the compound acts as an antagonist, an IC50 value is determined by non-linear curve fitting. In the second mode, several fixed concentrations of the disclosed compounds are added to various wells on a plate, followed by a range in concentrations of agonist for each concentration of disclosed compound. The EC50 values for the agonist at each concentration of compound are determined by non-linear curve fitting. A decrease in the EC50 value of the agonist with increasing concentrations of the sample compound (a leftward shift of the agonist concentration-response curve) is an indication of the degree of mGluR4 potentiation at a given concentration of the sample compound. A decrease in the maximal response of the agonist with increasing concentrations of the sample compounds, with or without a rightward shift in agonist potency, is an indication of the degree of antagonism at mGluR4. The second mode also indicates whether the sample compounds also affect the maximum response to mGluR4 to agonists.
# Chain of human mGlu4 (Q14833 33-912): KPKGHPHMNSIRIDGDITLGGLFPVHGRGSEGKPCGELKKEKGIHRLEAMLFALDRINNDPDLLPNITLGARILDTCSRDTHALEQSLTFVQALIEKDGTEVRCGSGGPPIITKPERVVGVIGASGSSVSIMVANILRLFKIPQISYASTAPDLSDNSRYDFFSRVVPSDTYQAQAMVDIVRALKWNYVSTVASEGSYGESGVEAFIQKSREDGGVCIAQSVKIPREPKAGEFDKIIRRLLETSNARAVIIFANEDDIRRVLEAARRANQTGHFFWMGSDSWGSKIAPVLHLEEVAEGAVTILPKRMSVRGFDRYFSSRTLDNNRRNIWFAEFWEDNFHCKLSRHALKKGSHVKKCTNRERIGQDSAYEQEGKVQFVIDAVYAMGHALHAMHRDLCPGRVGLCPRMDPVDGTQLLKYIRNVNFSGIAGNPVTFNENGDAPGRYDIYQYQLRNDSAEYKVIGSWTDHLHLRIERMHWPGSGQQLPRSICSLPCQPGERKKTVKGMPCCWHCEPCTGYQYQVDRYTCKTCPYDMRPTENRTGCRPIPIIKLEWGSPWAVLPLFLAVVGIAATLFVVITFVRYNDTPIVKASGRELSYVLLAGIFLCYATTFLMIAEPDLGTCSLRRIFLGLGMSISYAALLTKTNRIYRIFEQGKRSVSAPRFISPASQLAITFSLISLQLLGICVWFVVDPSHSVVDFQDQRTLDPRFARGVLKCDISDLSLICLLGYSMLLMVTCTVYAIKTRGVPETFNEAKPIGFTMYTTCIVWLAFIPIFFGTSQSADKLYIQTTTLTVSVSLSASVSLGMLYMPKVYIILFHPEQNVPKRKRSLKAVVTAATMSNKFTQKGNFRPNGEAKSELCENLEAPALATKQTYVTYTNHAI
row,Compound,EC50 [nM]
1,Cn1nc(OCC2CC2)c2ccc(Nc3n[nH]c4cccnc34)cc21 [Compound 5],164
2,[2H]C([2H])(C)Oc1nn(C)c2cc(Nc3n[nH]c4cccnc34)ccc12 [Compound 7],356
3,[2H]C([2H])([2H])Oc1nn(C)c2cc(Nc3n[nH]c4cccnc34)ccc12 [Compound 8],294
4,CCCOc1nn(C)c2cc(Nc3n[nH]c4cccnc34)ccc12 [Compound 9],171
5,Cn1nc(OCc2ccncc2)c2ccc(Nc3n[nH]c4cccnc34)cc21 [Compound 10],65.7
6,Cn1nc(Oc2ccc(C#N)cn2)c2ccc(Nc3n[nH]c4cccnc34)cc21 [Compound 11],157
7,Cc1cc(COc2nn(C)c3cc(Nc4n[nH]c5cccnc45)ccc23)no1 [Compound 12],203
8,Cn1nc(OCC(F)(F)F)c2ccc(Nc3n[nH]c4cccnc34)cc21 [Compound 13],175
9,Cn1nc(OCC2CCCCO2)c2ccc(Nc3n[nH]c4cccnc34)cc21 (centres unmarked) [Compound 14],85.6
10,Cn1nc(Oc2ncccc2C#N)c2ccc(Nc3n[nH]c4cccnc34)cc21 [Compound 15],184
11,Cn1nc(Oc2cccc(C#N)n2)c2ccc(Nc3n[nH]c4cccnc34)cc21 [Compound 16],111
12,Cn1nc(OCc2ccccn2)c2ccc(Nc3n[nH]c4cccnc34)cc21 [Compound 17],462
13,Cn1nc(OCCOc2ccc(F)cc2)c2ccc(Nc3n[nH]c4cccnc34)cc21 [Compound 18],852
14,Cn1nc(OCCOc2ccccc2F)c2ccc(Nc3n[nH]c4cccnc34)cc21 [Compound 19],483
15,Cn1nc(OC2CCOCC2)c2ccc(Nc3n[nH]c4cccnc34)cc21 [Compound 20],45.4
16,Cn1nc(OCCN2CCOCC2)c2ccc(Nc3n[nH]c4cccnc34)cc21 [Compound 21],238
17,Cn1nc(OC2COC2)c2ccc(Nc3n[nH]c4cccnc34)cc21 [Compound 22],629
18,COCCOc1nn(C)c2cc(Nc3n[nH]c4cccnc34)ccc12 [Compound 23],380

row,Compound,EC50 [nM]
1,Cn1nc(OCCN2CCOCC2)c2c(Cl)cc(Nc3n[nH]c4cccnc34)cc21 [Compound 24],322
2,Cn1nc(Oc2ccc(C#N)cn2)c2c(Cl)cc(Nc3n[nH]c4cccnc34)cc21 [Compound 25],482
3,COc1nn(C)c2cc(Nc3n[nH]c4cccnc34)cc(Cl)c12 [Compound 26],707
4,Cn1nc(OCC2COC2)c2ccc(Nc3n[nH]c4cccnc34)cc21 [Compound 27],96.4
5,Cn1nc(OC2CCOC2)c2ccc(Nc3n[nH]c4cccnc34)cc21 (centres unmarked) [Compound 28],726
6,Cn1nc(OC2CCS(=O)(=O)CC2)c2ccc(Nc3n[nH]c4cccnc34)cc21 [Compound 29],214
7,COCCCOc1nn(C)c2cc(Nc3n[nH]c4cccnc34)ccc12 [Compound 30],172
8,Cn1nc(OCC2CC2(F)F)c2ccc(Nc3n[nH]c4cccnc34)cc21 (centres unmarked) [Compound 31],112
9,Cn1nc(O[C@H]2CCOC2)c2ccc(Nc3n[nH]c4cccnc34)cc21 [Compound 32],456
10,Cn1nc(O[C@H]2CCOC2)c2ccc(Nc3n[nH]c4ncccc34)cc21 [Compound 33],575
11,COCCOc1nn(C)c2cc(Nc3n[nH]c4ncccc34)ccc12 [Compound 34],529
12,Cn1nc(OCC2COCCO2)c2ccc(Nc3n[nH]c4cccnc34)cc21 (centres unmarked) [Compound 35],361
13,Cn1nc(OC2CC3CCC2O3)c2ccc(Nc3n[nH]c4cccnc34)cc21 (centres unmarked) [Compound 37],306
14,Cn1nc(OC2CC3CCC2O3)c2ccc(Nc3n[nH]c4ncccc34)cc21 (centres unmarked) [Compound 38],601
15,Cn1nc(OC2CCS(=O)(=O)CC2)c2ccc(NC(=O)c3ccccn3)cc21 [Compound 39],417
16,Cn1nc(OC2CCS(=O)(=O)CC2)c2ccc(NC(=O)c3ncccc3O)cc21 [Compound 41],403
17,Cn1nc(OCC2CCOC2)c2ccc(NC(=O)c3ncccc3O)cc21 (centres unmarked) [Compound 44],53

# Source: patent US10508105B2, “Indazole compounds as mGluR4 allosteric potentiators, compositions, and methods of treating neurological dysfunction” (Vanderbilt University, priority 2017, dated 2019)
